Holding throughout (format): cell-based
Assay [1] relates to SARS-CoV-2 S protein variant N501Y PsV. The settings on record: read-out: IC50 against SARS-CoV-2 S variant PsV N501Y.
Assay [2] deals with SARS-CoV-2 S protein variant D614G PsV. The following applies: read-out: IC50 against SARS-CoV-2 S variant PsV D614G.
The test system of assay [3] is SARS-CoV-2 S protein variant P681H PsV. The following applies: read-out: IC50 against SARS-CoV-2 S variant PsV P681H.

The values that follow come from article PMC9618446 (Biomedicine & Pharmacotherapy, 2022).

As to `COc1c(O)cc2oc(-c3ccccc3)cc(=O)c2c1O` [OA, Oroxylin A], the IC50 came out at 13.6 ± 1.24 µM in assay [1], 18.1 ± 0.67 µM in assay [2] and 19.6 ± 2.39 µM in assay [3].
